Biological target: T1, PIK3CB/PIK3R1 (p110β/p85α) (Homo sapiens, UniProt P42338)
T1 construct: purchased Thermo Fisher Scientific (Life Technologies) SelectScreen
Test: SelectScreen Adapta
Type: biochemical
Summary of the method: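 Percent values come from Thermo SelectScreen profiling of NU5455, combining activity and binding assays. CSF1R was run in Z'LYTE format at Km app ATP, and CAMK1 in Adapta format with ATP listed at 10.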

T1 sequence (P42338 whole entry): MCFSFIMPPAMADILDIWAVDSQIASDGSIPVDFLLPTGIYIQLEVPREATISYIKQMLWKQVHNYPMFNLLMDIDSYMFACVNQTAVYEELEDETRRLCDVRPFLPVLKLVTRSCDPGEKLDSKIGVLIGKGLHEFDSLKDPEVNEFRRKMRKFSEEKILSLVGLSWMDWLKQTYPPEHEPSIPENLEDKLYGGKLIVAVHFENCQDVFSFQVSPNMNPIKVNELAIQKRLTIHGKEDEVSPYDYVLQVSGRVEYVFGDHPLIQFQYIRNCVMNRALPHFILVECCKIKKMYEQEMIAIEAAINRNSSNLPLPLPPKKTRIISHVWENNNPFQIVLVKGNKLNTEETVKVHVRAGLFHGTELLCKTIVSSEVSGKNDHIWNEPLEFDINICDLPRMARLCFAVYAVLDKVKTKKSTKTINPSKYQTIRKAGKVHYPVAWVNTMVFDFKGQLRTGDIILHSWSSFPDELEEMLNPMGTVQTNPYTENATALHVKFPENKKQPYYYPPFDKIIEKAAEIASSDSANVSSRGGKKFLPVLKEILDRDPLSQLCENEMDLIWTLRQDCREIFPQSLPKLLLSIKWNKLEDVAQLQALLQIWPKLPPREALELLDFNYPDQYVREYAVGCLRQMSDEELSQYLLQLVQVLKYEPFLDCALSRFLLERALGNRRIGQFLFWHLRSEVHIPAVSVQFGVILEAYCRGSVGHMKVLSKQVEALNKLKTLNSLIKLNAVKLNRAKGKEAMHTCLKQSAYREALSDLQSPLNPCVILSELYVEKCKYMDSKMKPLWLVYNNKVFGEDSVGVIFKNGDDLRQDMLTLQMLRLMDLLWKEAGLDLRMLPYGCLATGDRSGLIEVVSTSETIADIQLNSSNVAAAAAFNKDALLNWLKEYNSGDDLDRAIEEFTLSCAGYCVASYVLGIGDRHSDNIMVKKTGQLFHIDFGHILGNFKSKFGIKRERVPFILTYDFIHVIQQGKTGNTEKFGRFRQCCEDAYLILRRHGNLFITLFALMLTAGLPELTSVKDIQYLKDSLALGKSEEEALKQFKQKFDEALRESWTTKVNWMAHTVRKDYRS
T1 sequence (P27986 whole entry partner): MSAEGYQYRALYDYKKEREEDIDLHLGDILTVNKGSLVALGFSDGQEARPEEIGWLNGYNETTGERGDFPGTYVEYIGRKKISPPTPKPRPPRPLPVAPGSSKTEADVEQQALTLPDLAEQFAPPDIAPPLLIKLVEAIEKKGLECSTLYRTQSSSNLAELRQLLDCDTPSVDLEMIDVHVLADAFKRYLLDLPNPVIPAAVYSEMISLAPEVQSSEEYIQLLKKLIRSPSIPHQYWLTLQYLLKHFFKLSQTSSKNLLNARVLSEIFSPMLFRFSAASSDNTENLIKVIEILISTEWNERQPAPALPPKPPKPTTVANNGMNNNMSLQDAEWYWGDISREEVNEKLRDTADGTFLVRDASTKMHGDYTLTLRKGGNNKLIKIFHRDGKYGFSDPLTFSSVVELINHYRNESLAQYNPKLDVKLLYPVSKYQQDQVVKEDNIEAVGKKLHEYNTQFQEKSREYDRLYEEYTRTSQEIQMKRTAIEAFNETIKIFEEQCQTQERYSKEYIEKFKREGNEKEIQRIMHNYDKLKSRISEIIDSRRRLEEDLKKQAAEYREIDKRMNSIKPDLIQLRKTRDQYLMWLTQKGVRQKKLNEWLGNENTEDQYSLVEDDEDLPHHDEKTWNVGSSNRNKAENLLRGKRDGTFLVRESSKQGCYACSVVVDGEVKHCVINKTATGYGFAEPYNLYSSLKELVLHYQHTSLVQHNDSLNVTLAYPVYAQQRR

## CN(C(=O)CN1CCOCC1)c1ccc2sc3c(-c4cccc5c(=O)cc(N6CC7CCC(C6)O7)oc45)cccc3c2c1 [NU5455]
  inhibition at 1 µM: -3.8%
